Values joined by “and” are separate entries in the source; they are usually repeats but may differ in a detail not shown here. Equal entries are not always repeated. Where two headings read alike, the source gives them in different places. Marks after values point to notes of the source that are not given here.
Columns and labels:
[1] = Parallel artificial membrane permeability assay (PAMPA); assay type: in vitro ADME
[2] = parameters: method as in PMID 26085270; conditions: potentiometric titration, value in parentheses; cited from earlier work
[3] = parameters: method as in PMID 26085270; conditions: pH 7.4; cited from earlier work
[4] = parameters: method as in PMID 26085270; conditions: male Sprague Dawley rat, intravenous at 1 mg/kg; cited from earlier work
[5] = parameters: method as in PMID 26085270; conditions: mouse, iv dose 1 mg/kg; cited from earlier work
[6] = parameters: method as in PMID 26085270; conditions: mouse liver microsome; cited from earlier work
[7] = parameters: method as in PMID 26085270; conditions: mouse plasma protein binding; cited from earlier work
Pf (3D7) = test: Ligand efficiency metrics (LE, LLE, LELP), selectivity and fold changes; parameters: species or system Plasmodium falciparum
[8] = parameters: method as in PMID 26085270; conditions: rat liver microsome; cited from earlier work
[9] = parameters: method as in PMID 26085270; conditions: human liver microsome; cited from earlier work
P. berghei ANKA strain = test: In vivo antimalarial efficacy in the P. berghei mouse model (Peter's test); parameters: species or system Plasmodium berghei in female NMRI mice; conditions: for cure / inhibition in vivo at 1 mg/kg: once daily; for cure: mice cured / mice in group; for inhibition in vivo at 1 mg/kg: Plasmodium berghei, po, 96 h, 4 × 1 mg/kg oral, read-out: activity (reduction of parasitemia)
Experimental: Compound 41 was dosed as a bolus solution intravenously at 1 mg free base/kg (dose volume: 5 mL/kg; dose vehicle: 5% DMSO;saline) or by gavage orally as solution at 3 mg free base/kg (dose volume: 10 mL/kg; Dose vehicle: 0.5% w/v hydroxypropylmethylcellulose with 0.4% v/v Tween 80 and 0.5% v/v benzyl alcohol) to male Sprague Dawley rats (n=3/dose route). Blood samples were taken from each rat at 5, 15, 30 min, 1, 2, 4, 6, 8, 24 and 30 h post-dose, mixed with two volumes of distilled water and stored frozen until UPLC/MS/MS analysis.
Pharmacokinetic parameters were derived from the blood concentration time curve for each compound using PKsolutions software v 2.0 (Summit Research Services, USA).
In vivo antimalarial efficacy studies in P. berghei. (Swiss TPH)
In vivo efficacy was conducted as previously described10 with the modification that female NMRI mice (n = 3) were infected with a GFP-transfected P. berghei ANKA strain (donated by A. P. Waters and C. J. Janse, Leiden University, The Netherlands), and parasitaemia determined (96 h after infection) using standard flow cytometry techniques. Compounds 1, 25, 27, 30 and 49 were prepared in 10% DM SO, 40% PEG 400 and 50% water prior to administration orally, once daily for 4 days.
Compounds 40, 41, 43 and 44 were prepared in a non-solubilizing, standard suspension vehicle called HPMC (0.5% [wt/vol] hydroxypropylmethylcellulose, 0.5% [vol/vol] benzyl alcohol, 0.4% [vol/vol] Tween 80, and 0.9% [wt/vol] sodium chloride in water) prior to administration orally, once daily for 4 days. Blood samples were collected on day 4 (96 h after infection) in two volumes water. Animals […]
and then hourly up to 4 h after dosing each day. The animals were selected randomly for each group

[10] = test system: Plasmodium falciparum strain 3D7; test: Plasmodium falciparum screening, SYBR green growth inhibition; assay type: cell-based; conditions: 3D7, supplementary csv, read-out: Pf (3D7) EC50
Experimental: (§1) Plasmodium falciparum screening
(§2) Assays against P. falciparum were conducted as previously described.1 Cultures of the widely-used malaria reference strain of chloroquine-sensitive Plasmodium falciparum strain 3D7 were maintained in a 5% suspension of human red blood cells (obtained from East of Scotland Blood Transfusion Service, Ninewells Hospital, Dundee) cultured in RPMI 1640 medium (pH 7.3) supplemented with 0.5% Albumax II (Gibco Life Technologies, San Diego, CA), 12 mM sodium bicarbonate, 0.2 mM hypoxanthine and 20 mg/L gentamicin at 37°C, in a humidified atmosphere of 1% O 2, 3% CO2 with a balance of nitrogen. Growth inhibition was quantified using a fluorescence assay utilising the binding of SYBR green to double stranded DNA, which emits a fluorescent signal at 528 nm after excitation at 485nm.2 Mefloquine (potency range 30-60 nM) was used as a drug control to monitor the quality of the assay (Z’ = 0.6 to 0.8, Signal to background >3, where Z’ is a measure of the discrimination between the positive and negative controls on a screen plate). A 96-well [3H]-Hypoxanthine incorporation assay was also developed as a secondary assay in order to validate compounds from the initial screen in an orthogonal platform.3 Compound bioactivity from both assays was expressed as […]
(§3) P. falciparum (panel of resistant strains) in vitro assay. (Swiss TPH)
(§4) All Plasmodium strains were cultured according to Trager and Jensen and are described at www.beiresources.org (resistant strains: K1, W2, 7G8, TM90C2A, D6 and V1/S, sensitive strain:
(§5) NF54). EC50 values were determined in vitro by measuring incorporation of the nucleic acid precursor […]
(§6) Mammalian Cell Growth Inhibition assay
(§7) A counter-screen against normal diploid human fibroblasts (MRC-5 cell line) was carried out to exclude non-selective, and toxic compounds. The assay was essentially carried out as described previously.4 Cells were plated and incubated overnight to allow them to adhere as monolayers. A working stock of each test compound was transferred to an intermediate 384-well plate and pre-diluted with minimum essential media (MEM). The pre-diluted stocks were then transferred onto the cell monolayers, and the plates were incubated for 68 h. Resazurin, to a final concentration of 50 μM, was added to each well, after which plates were incubated for a further 3 h and measured for fluorescence (λex=528 nm, λem=590 nm)
(§8) In vitro Cell Assay Data Analysis.
(§9) All data was processed using IDBS ActivityBase® raw data was converted into per cent inhibition through linear regression by setting the high inhibition control as 100% and the no inhibition control as 0%. Quality control criteria for passing plates were as follows: Z’> 0.5, S:B> 3, %CV(no inhibition < 15 . The formula used to calculate Z’ is 1 3× (St D e v _ hi gh + St D e v _ low) . […]
(§10) All EC50 Curve fitting was undertaken using XLFit version 4.2 using Model 205 with the following 4 parametric equation: y = A + B A A + ($-&) ,where A=% inhibition at bottom, B=% […]
(§11) inhibition at top, C= EC50, D= slope, x= inhibitor concentration and y= % inhibition. […]
(§12) reach 100% of inhibition, B was fixed to 100 only when at least 50% of inhibition was reached.
(§13) Plasmodium falciparum late stage (IV-V) gametocyte high content imaging assay Plasmodium falciparum NF54-pfs16-LUC-GFP stage IV-V Gametocytes were produced as described previously.5 Compounds were solubilized in DMSO and serially diluted in three concentrations per log standard curves in DM SO. One µl of compound was subsequently diluted in 25µl of water (4% DMSO) and 5µl transferred into the base of 384 well PerkinElmer CellCarrier plates. Forty-five µl of stage IV-V gametocytes (10%P in 0.1%H) were added to the imaging plates which were in turn sealed with a gas permeable membrane and incubated at 37°C, 5% CO 2, 5% O2, 90% N2 and 60% humidity […]
(§14) Post incubation, 5µl of MitoTracker® Red CM -H2Xros (MTR) solution (0.66ug/ml) was added to all wells and the plates incubated for a further 16hours. […]

[11] = Mammalian cell growth inhibition counter-screen (resazurin); assay type: cell-based, human; conditions: human, MRC-5 cells (normal diploid human fibroblasts)
Experimental: as §1, §2, §3, §4, §5, §6, §7, §8, §9, §10, §11, §12, §13, §14

[12] = Intrinsic clearance (Cli) in human liver microsomes; assay type: in vitro ADME; conditions: human liver microsome
Text: as §11, §12, §13
(§15) Post incubation, 5µl of MitoTracker® Red CM -H2Xros (MTR) solution (0.66ug/ml) was added to all wells and the plates incubated for a further 16hours. The assay plates were then imaged and the number of viable gametocytes determined for test compounds plus 0.4%DMSO and 5µM Puromycin.
(§16) (0.4%DMSO) control values. Percent inhibition was plotted against log compound concentration using a 4 parameter log dose, non-linear regression analysis, with sigmoidal dose response (variable slope) curve fit using Prizm 4.0. IC50 values were obtained from this curve fit. The compound testing was performed in duplicate point within two separate experiments.
(§17) Plasmodium berghei ookinete development assay
(§18) Assay was performed as previously reported.6 Briefly blood containing P. berghei CTRPp-GFP gametocytes was rapidly harvested from infected mice and introduced to test compounds pre-diluted in ookinete medium (to induce gamete formation and support ookinete development) in 96-well plates. Plates were incubated in the dark at 21°C for 22 hr before GFP fluorescence intensity measured in a plate reader. % inhibition of ookinete formation was calculated with reference to the fluorescence intensity values of a positive control (20 µM cycloheximide) and a solvent-only negative control (DMSO). All assays were performed in triplicate independent experiments and EC50 values calculated in Graphpad Prism.
(§19) The aqueous solubility of the test compounds was measured using laser nephelometry, as described previously.7 Compounds were subject to serial dilution from 10 mg/mL to 0.5 mg/mL in DMSO. An aliquot was then mixed with MilliQ water to obtain an aqueous dilution plate with a final concentration range of 100 – 5 μg/mL, with a final DMSO concentration of 1.0%. Triplicate aliquots were transferred to a flat bottomed polystyrene plate which was immediately read on the NEPHELOstar (BMG Lab Technologies). The amount of laser scatter caused by insoluble particulates (relative nephelometry units, RNU) was plotted against compound concentration using a segmental regression fit, with the point of inflection being quoted as the compounds aqueous solubility (μg/mL; […]
(§20) Intrinsic Clearance (Cli) experiments
(§21) The procedure was carried out as reported previously.7 Test compound (0.5 µM) was incubated with female CD1 mouse, male sprague-dawley rat or pooled human mixed gender liver microsomes (Xenotech LLC TM; 0.5 mg/mL 50 mM potassium phosphate buffer, pH 7.4) and the reaction initiated […]
(§22) by the addition of excess NADPH (8 mg/mL 50 mM potassium phosphate buffer, pH 7.4). […]

[13] = Intrinsic clearance (Cli) in rat liver microsomes; assay type: in vitro ADME; conditions: rat liver microsome
Text: as §11, §12, §13, §15, §16, §17, §18, §19, §20, §21, §22

[14] = Intrinsic clearance (Cli) in mouse liver microsomes; assay type: in vitro ADME; conditions: mouse liver microsome
Text: as §11, §12, §13, §15, §16, §17, §18, §19, §20, §21
by the addition of excess NADPH (8 mg/mL 50 mM potassium phosphate buffer, pH 7.4).
Immediately, at time zero, then at 3, 6, 9, 15 and 30 min an aliquot (50 μL) of the incubation mixture was removed and mixed with acetonitrile (100 μL) to stop the reaction. Internal standard was added to all samples, the samples centrifuged to sediment precipitated protein and the plates then sealed prior to UPLC-MS/MS analysis using a Quattro Premier XE (Waters Corporation, USA).
XLfit (IDBS, UK) was used to calculate the exponential decay and consequently the rate constant (k) from the ratio of peak area of test compound to internal standard at each timepoint. The rate of […]

[15] = Experimental pKa by potentiometric titration; assay type: physicochemical; conditions: value in parentheses, read-out: R^3 group pKa, experimental
Text: Table 4 SAR Study of the R^3 Substituent: Aromatic Groups | column: R^3 group pKa^a

[16] = Pf (3D7), relative to the comparator compound of the sentence

In the case of CC(C)NCC(O)COc1cccc2ccccc12 (centres unmarked) [propanolol, reference compound], the Papp at 5 h, 10 µM ([1]; pH 7.4, read-out: PAMPA Pe) is reported as 15.9 ×10⁻⁶ cm/s.
In the case of O=C(NCCN1CCCC1)c1cc(-c2ccc(CN3CCOCC3)cc2)nc2ccc(F)cc12 [Compound 2], the “R^3 group pKa, experimental” value [2] is given as 6.8, the “PAMPA Pe” value [3] is given as 7.3 ×10⁻⁶ cm/s and the increase in permeability ([1]; relative to the earlier lead) is given as “more than 30 fold”. For the same compound, the Clb [4] was 18 mL min^–1 kg^–1, the Clb [5] was 12 ^b mL min^–1 kg^–1 and the “MLM Cli” value [6] was less than 0.5 mL min^–1 g^–1. For the same compound, the PPB [7] was 63%, the “LLE (ligand-lipophilicity efficiency)” value (Pf (3D7)) was 5.9 and the “improvement / increase in potency” value (Pf (3D7); [16]) was 70 fold. For the same compound, the “RLM Cli” value [8] was no more than 0.8 mL min^–1 g^–1, the “HLM Cli” value [9] was no more than 1.1 mL min^–1 g^–1 and the cure (P. berghei ANKA strain; 4 × 3 mg/kg oral) was 2/3. For the same compound, the cure (P. berghei ANKA strain; 4 × 10 mg/kg oral) was 3/3, the cure (P. berghei ANKA strain; 4 × 30 mg/kg oral, 30 mg/kg) was “complete cure and 3/3” and the ED90 (P. berghei ANKA strain; dosed orally for 4 days) was 0.1 to 0.3 mg/kg.
In the case of O=C(NCCN1CCCC1)c1cc(NCCC2CCOCC2)nc2ccc(F)cc12 [Compound 29, 6-Fluoro-N-(2-(pyrrolidin-1-yl)ethyl)-2-((2-(tetrahydro-2H-pyran-4-yl)ethyl)amino)quinoline-4-carboxamide], the EC50 [10] is reported as 0.0017 µM and the EC50 at 68 h [11] is reported as greater than 50 µM.
With O=C(NCCN1CCCC1)c1cc(-c2ccc(CN3CCCC3=O)cc2)nc2ccc(F)cc12 [Compound 44] the “HLM Cli” value [12] was 2 mL min^–1 g^–1, the “RLM Cli” value [13] was 0.6 mL min^–1 g^–1 and the “MLM Cli” value [14] was 2.0 mL min^–1 g^–1.
With O=C(NCCN1CCCC1)c1cc(-c2ccc(CN3CCS(=O)(=O)CC3)cc2)nc2ccc(F)cc12 [Compound 43] the “RLM Cli” value [13] was 0.8 mL min^–1 g^–1, the “MLM Cli” value [14] was less than 0.5 mL min^–1 g^–1 and the inhibition in vivo at 1 mg/kg (P. berghei ANKA strain) was greater than 99%.
Cc1ccc(-c2cc(C(=O)Nc3cccnc3)c3ccccc3n2)cc1 [Compound 12, N-(Pyridine-3-yl)-2-(p-tolyl)quinoline-4-carboxamide] showed a drop in potency (Pf (3D7); [16]) of 8 fold and an EC50 at 68 h [11] greater than 50 µM.
With O=C(NCCN1CCCC1)c1cc(-c2ccc(CN3CCOCC3)c(F)c2)nc2ccc(F)cc12 [Compound 40] the pKa [15] was 6.1, the “MLM Cli” value [14] was 1.0 mL min^–1 g^–1 and the inhibition in vivo at 1 mg/kg (P. berghei ANKA strain) was greater than 99%.

Source: article PMC5108032, “Discovery of a Quinoline-4-carboxamide Derivative with a Novel Mechanism of Action, Multistage Antimalarial Activity, and Potent in Vivo Efficacy” (Journal of Medicinal Chemistry, 2016)
